Results reported in ChEMBL document CHEMBL3046126, “Synthesis and Herbicidal Activity of New Oxazolidinedione Derivatives” (J Pestic Sci, 1999).

Legend:
[1] = test system: Zea mays; assay: Pre-emergence phytotoxicity against Zea mays (maize) assessed as phytotoxic crop injury visual ratings at 500 g ai/ha measured after 14 days post treatment under upland field conditions; format: organism-based; settings: in vivo, other, 336 h
[2] = test system: Chenopodium album; assay: Pre-emergence herbicidal activity against Chenopodium album assessed as phytotoxic weed control visual ratings at 500 g ai/ha measured after 14 days post treatment under upland field conditions; format: functional
[3] = test system: Amaranthus viridis; assay: Pre-emergence herbicidal activity against Amaranthus viridis assessed as phytotoxic weed control visual ratings at 500 g ai/ha measured after 14 days post treatment under upland field conditions; format: functional
[4] = test system: Digitaria ciliaris; assay: Pre-emergence herbicidal activity against Digitaria ciliaris assessed as phytotoxic weed control visual ratings at 500 g ai/ha measured after 14 days post treatment under upland field conditions; format: functional
[5] = test system: Echinochloa crus-galli; assay: Pre-emergence herbicidal activity against Echinochloa crus-galli (barnyard grass) assessed as phytotoxic weed control visual ratings at 500 g ai/ha measured after 14 days post treatment under upland field conditions; format: functional
[6] = test system: Schoenoplectiella juncoides; assay: Pre-emergence herbicidal activity against Schoenoplectiella juncoides assessed as phytotoxic weed control visual ratings at 25 g ai/ha measured after 14 days post treatment under flooded conditions; format: functional
[7] = test system: Oryza sativa; assay: Pre-emergence phytotoxicity against Oryza sativa cv. Koshihikari (rice) assessed as phytotoxic crop injury visual ratings at 25 g ai/ha measured after 14 days post treatment under flooded conditions; format: organism-based; settings: in vivo, other, 336 h
[8] = test system: Pontederia vaginalis; assay: Pre-emergence herbicidal activity against Monochoria vaginalis assessed as phytotoxic weed control visual ratings at 25 g ai/ha measured after 14 days post treatment under flooded conditions; format: functional
[9] = test system: Lindernia procumbens; assay: Pre-emergence herbicidal activity against Lindernia procumbens assessed as phytotoxic weed control visual ratings at 25 g ai/ha measured after 14 days post treatment under flooded conditions; format: functional
[10] = test system: Cyperus difformis; assay: Pre-emergence herbicidal activity against Cyperus difformis assessed as phytotoxic weed control visual ratings at 25 g ai/ha measured after 14 days post treatment under flooded conditions; format: functional
[11] = test system: Echinochloa oryzicola; assay: Pre-emergence herbicidal activity against Echinochloa oryzicola assessed as phytotoxic weed control visual ratings at 25 g ai/ha measured after 14 days post treatment under flooded conditions; format: functional
[12] = test system: Rotala indica; assay: Pre-emergence herbicidal activity against Rotala indica assessed as phytotoxic weed control visual ratings at 25 g ai/ha measured after 14 days post treatment under flooded conditions; format: functional
[13] = test system: Elatine triandra; assay: Pre-emergence herbicidal activity against Elatine triandra assessed as phytotoxic weed control visual ratings at 25 g ai/ha measured after 14 days post treatment under flooded conditions; format: functional
[14] = Selectivity index, ratio of ED10 for Oryza sativa to ED90 for Echinochloa oryzicola by pre-emergence exposure method
[15] = Selectivity index, ratio of ED10 for Oryza sativa to ED90 for Echinochloa oryzicola by post-emergence exposure method
[16] = test system: Echinochloa oryzicola; assay: Post-emergence herbicidal activity against Echinochloa oryzicola assessed as phytotoxic weed control visual ratings measured after 14 days post treatment; format: functional
[17] = test system: Echinochloa oryzicola; assay: Pre-emergence herbicidal activity against Echinochloa oryzicola assessed as phytotoxic weed control visual ratings measured after 14 days post treatment; format: functional
[18] = test system: Oryza sativa; assay: Pre-emergence phytotoxicity against Oryza sativa cv. Koshihikari (rice) assessed as phytotoxic crop injury visual ratings measured after 14 days post treatment; format: organism-based; settings: in vivo, 336 h
[19] = test system: Oryza sativa; assay: Post-emergence phytotoxicity against Oryza sativa cv. Koshihikari (rice) assessed as phytotoxic crop injury visual ratings measured after 14 days post treatment; format: organism-based; settings: in vivo, 336 h
[20] = test system: Ammannia multiflora; assay: Early post-emergence herbicidal activity against Ammannia multiflora assessed as phytotoxic weed control visual ratings at 50 kg ai/ha measured after 14 days post treatment under flooded conditions; format: functional
[21] = test system: Pontederia vaginalis; assay: Early post-emergence herbicidal activity against Monochoria vaginalis assessed as phytotoxic weed control visual ratings at 50 kg ai/ha measured after 14 days post treatment under flooded conditions; format: functional
[22] = test system: Echinochloa crus-galli; assay: Early post-emergence herbicidal activity against Echinochloa crus-galli (barnyard grass) assessed as phytotoxic weed control visual ratings at 50 kg ai/ha measured after 14 days post treatment under flooded conditions; format: functional
[23] = test system: Elatine triandra; assay: Pre-emergence herbicidal activity against Elatine triandra assessed as phytotoxic weed control visual ratings at 2.5 kg ai/ha measured after 14 days post treatment under flooded conditions; format: functional
[24] = test system: Rotala indica; assay: Pre-emergence herbicidal activity against Rotala indica assessed as phytotoxic weed control visual ratings at 2.5 kg ai/ha measured after 14 days post treatment under flooded conditions; format: functional
[25] = test system: Oryza sativa; assay: Pre-emergence phytotoxicity against Oryza sativa cv. Koshihikari (rice) assessed as induction of leaf sheath browning at 2.5 kg ai/ha measured after 14 days post treatment under flooded conditions; format: organism-based; settings: in vivo, other, 336 h
[26] = test system: Schoenoplectiella juncoides; assay: Pre-emergence herbicidal activity against Schoenoplectiella juncoides assessed as phytotoxic weed control visual ratings at 2.5 kg ai/ha measured after 14 days post treatment under flooded conditions; format: functional
[27] = test system: Pontederia vaginalis; assay: Pre-emergence herbicidal activity against Monochoria vaginalis assessed as phytotoxic weed control visual ratings at 2.5 kg ai/ha measured after 14 days post treatment under flooded conditions; format: functional
[28] = test system: Oryza sativa; assay: Pre-emergence phytotoxicity against Oryza sativa cv. Koshihikari (rice) assessed as phytotoxic crop injury visual ratings at 2.5 kg ai/ha measured after 14 days post treatment under flooded conditions; format: organism-based; settings: in vivo, other, 336 h
[29] = test system: Lindernia procumbens; assay: Pre-emergence herbicidal activity against Lindernia procumbens assessed as phytotoxic weed control visual ratings at 2.5 kg ai/ha measured after 14 days post treatment under flooded conditions; format: functional
[30] = test system: Cyperus difformis; assay: Pre-emergence herbicidal activity against Cyperus difformis assessed as phytotoxic weed control visual ratings at 2.5 kg ai/ha measured after 14 days post treatment under flooded conditions; format: functional
[31] = test system: Echinochloa oryzicola; assay: Pre-emergence herbicidal activity against Echinochloa oryzicola assessed as phytotoxic weed control visual ratings at 2.5 kg ai/ha measured after 14 days post treatment under flooded conditions; format: functional
[32] = test system: Elatine triandra; assay: Pre-emergence herbicidal activity against Elatine triandra assessed as phytotoxic weed control visual ratings at 1.25 kg ai/ha measured after 14 days post treatment under flooded conditions; format: functional
[33] = test system: Rotala indica; assay: Pre-emergence herbicidal activity against Rotala indica assessed as phytotoxic weed control visual ratings at 1.25 kg ai/ha measured after 14 days post treatment under flooded conditions; format: functional
[34] = test system: Cyperus difformis; assay: Pre-emergence herbicidal activity against Cyperus difformis assessed as phytotoxic weed control visual ratings at 1.25 kg ai/ha measured after 14 days post treatment under flooded conditions; format: functional
[35] = test system: Echinochloa oryzicola; assay: Pre-emergence herbicidal activity against Echinochloa oryzicola assessed as phytotoxic weed control visual ratings at 1.25 kg ai/ha measured after 14 days post treatment under flooded conditions; format: functional
[36] = test system: Oryza sativa; assay: Pre-emergence phytotoxicity against Oryza sativa cv. Koshihikari (rice) assessed as phytotoxic crop injury visual ratings at 1.25 kg ai/ha measured after 14 days post treatment under flooded conditions; format: organism-based; settings: in vivo, other, 336 h
[37] = test system: Schoenoplectiella juncoides; assay: Pre-emergence herbicidal activity against Schoenoplectiella juncoides assessed as phytotoxic weed control visual ratings at 1.25 kg ai/ha measured after 14 days post treatment under flooded conditions; format: functional
[38] = test system: Pontederia vaginalis; assay: Pre-emergence herbicidal activity against Monochoria vaginalis assessed as phytotoxic weed control visual ratings at 1.25 kg ai/ha measured after 14 days post treatment under flooded conditions; format: functional
[39] = test system: Lindernia procumbens; assay: Pre-emergence herbicidal activity against Lindernia procumbens assessed as phytotoxic weed control visual ratings at 1.25 kg ai/ha measured after 14 days post treatment under flooded conditions; format: functional

Structure (SMILES)	Phytotoxicity [1] [%]	Phytotoxicity [2] [%]	Phytotoxicity [3] [%]	Phytotoxicity [4] [%]	Phytotoxicity [5] [%]	Phytotoxicity [6] [%]	Phytotoxicity [7] [%]	Phytotoxicity [8] [%]	Phytotoxicity [9] [%]	Phytotoxicity [10] [%]	Phytotoxicity [11] [%]	Phytotoxicity [12] [%]	Phytotoxicity [13] [%]	Selectivity Index [14]	Selectivity Index [15]	ED90 [16] [gAi/ha]	ED90 [17] [gAi/ha]	ED10 [18] [gAi/ha]	ED10 [19] [gAi/ha]	also measured
C#CCSc1cc(N2C(=O)OC(=C(C)C)C2=O)c(F)cc1Cl	0	100	100	30	50	100	0	100	100	100	100	100	100	4	2	100	12.5	50	200	–
C#CCOc1cc(N2C(=O)OC(=C(C)C)C2=O)c(F)cc1Cl	10	100	100	100	80	100	30	100	100	100	100	100	100	2	2	12.5	3.13	6.25	25	Phytotoxicity [20]: 100%; Phytotoxicity [21]: 100%; Phytotoxicity [22]: 100%
CC(C)=C1OC(=O)N(c2cc(OC3CCCCC3)c(Cl)cc2F)C1=O	10	20	30	30	10	80	0	100	100	100	100	100	100	8	8	25	25	200	200	–
CC(C)Oc1cc(-n2nc(C(C)(C)C)oc2=O)c(Cl)cc1Cl [OXADIAZON]	40	100	100	100	100	100	0	100	100	100	90	100	100	8	8	50	25	200	400	–
CC(C)=C1OC(=O)N(c2ccc(Cl)cc2Cl)C1=O	–	–	–	–	–	–	–	–	–	–	–	–	–	–	–	–	–	–	–	Phytotoxicity [23]: 100%; Phytotoxicity [24]: 100%; Activity [25]: Toxic; Phytotoxicity [26]: 100%; Phytotoxicity [27]: 100%; Phytotoxicity [28]: 20%; Phytotoxicity [29]: 100%; Phytotoxicity [30]: 100%; Phytotoxicity [31]: 100%
CC(C)=C1OC(=O)N(c2cc(OC(C)C)c(Cl)cc2F)C1=O	10	100	100	100	90	90	0	100	100	100	100	100	100	4	6	25	25	100	150	–
C#CCOc1cc(N2C(=O)OC(=C(C)C)C2=O)c(F)cc1Br	–	–	–	–	–	–	–	–	–	–	–	–	–	–	–	–	–	–	–	Phytotoxicity [20]: 100%; Phytotoxicity [21]: 100%; Phytotoxicity [22]: 80%
CC(C)=C1OC(=O)N(c2cc(OC3CCCC3)c(Cl)cc2F)C1=O [PENTOXAZONE]	10	50	100	90	60	100	0	100	100	100	100	100	100	16	16	25	12.5	200	400	–
CC(C)=C1OC(=O)N(c2ccc(Cl)c(Cl)c2)C1=O	–	–	–	–	–	–	–	–	–	–	–	–	–	–	–	–	–	–	–	Phytotoxicity [23]: 100%; Phytotoxicity [24]: 100%; Activity [25]: Toxic; Phytotoxicity [26]: 80%; Phytotoxicity [27]: 80%; Phytotoxicity [28]: 10%; Phytotoxicity [29]: 100%; Phytotoxicity [30]: 100%; Phytotoxicity [31]: 10%
C=CCOc1cc(N2C(=O)OC(=C(C)C)C2=O)c(F)cc1Cl	10	70	80	90	30	90	0	100	100	100	80	100	100	1	1	100	50	50	100	–
CC(C)=C1OC(=O)N(c2ccc(Cl)cc2)C1=O	–	–	–	–	–	–	–	–	–	–	–	–	–	–	–	–	–	–	–	Phytotoxicity [32]: 100%; Phytotoxicity [33]: 100%; Phytotoxicity [23]: 100%; Phytotoxicity [24]: 100%; Phytotoxicity [34]: 100%; Phytotoxicity [35]: 90%; Phytotoxicity [36]: 10%; Phytotoxicity [37]: 100%; Phytotoxicity [38]: 100%; Phytotoxicity [39]: 100%; Activity [25]: Toxic; Phytotoxicity [26]: 100%; Phytotoxicity [27]: 100%; Phytotoxicity [28]: 30%; Phytotoxicity [29]: 100%; Phytotoxicity [30]: 100%; Phytotoxicity [31]: 100%
C#CCOc1cc(N2C(=O)OC(=C(C)C)C2=O)c(Cl)cc1Cl	–	–	–	–	–	–	–	–	–	–	–	–	–	–	–	–	–	–	–	Phytotoxicity [20]: 90%; Phytotoxicity [21]: 100%; Phytotoxicity [22]: 90%
